For one data set, the target named is Acetylcholinesterase (Homo sapiens, UniProt P22303). The data set is described as follows: Inhibition of human serum recombinant AChE using acetylthiocholine iodide as a substrate incubated for 20 mins by DTNB reagent based Ellman's method. In kind it is cell-free.
Data set [1] concerns the target Cholinesterase (Homo sapiens) (UniProt P06276). In words: Inhibition of human serum recombinant BChE using butyrylthiocholine iodide as a substrate at 10 uM incubated for 20 mins by DTNB reagent based Ellman's method. Format: cell-free.
In data set [2] the target is Amyloid-beta precursor protein (Homo sapiens) (UniProt P05067). In words: Inhibition of amyloid beta (1 to 40) (unknown origin) self aggregation at 10 uM incubated for 2 hrs by ThT fluorescence assay.
Chain of Amyloid-beta precursor protein (Homo sapiens) (P05067 whole entry): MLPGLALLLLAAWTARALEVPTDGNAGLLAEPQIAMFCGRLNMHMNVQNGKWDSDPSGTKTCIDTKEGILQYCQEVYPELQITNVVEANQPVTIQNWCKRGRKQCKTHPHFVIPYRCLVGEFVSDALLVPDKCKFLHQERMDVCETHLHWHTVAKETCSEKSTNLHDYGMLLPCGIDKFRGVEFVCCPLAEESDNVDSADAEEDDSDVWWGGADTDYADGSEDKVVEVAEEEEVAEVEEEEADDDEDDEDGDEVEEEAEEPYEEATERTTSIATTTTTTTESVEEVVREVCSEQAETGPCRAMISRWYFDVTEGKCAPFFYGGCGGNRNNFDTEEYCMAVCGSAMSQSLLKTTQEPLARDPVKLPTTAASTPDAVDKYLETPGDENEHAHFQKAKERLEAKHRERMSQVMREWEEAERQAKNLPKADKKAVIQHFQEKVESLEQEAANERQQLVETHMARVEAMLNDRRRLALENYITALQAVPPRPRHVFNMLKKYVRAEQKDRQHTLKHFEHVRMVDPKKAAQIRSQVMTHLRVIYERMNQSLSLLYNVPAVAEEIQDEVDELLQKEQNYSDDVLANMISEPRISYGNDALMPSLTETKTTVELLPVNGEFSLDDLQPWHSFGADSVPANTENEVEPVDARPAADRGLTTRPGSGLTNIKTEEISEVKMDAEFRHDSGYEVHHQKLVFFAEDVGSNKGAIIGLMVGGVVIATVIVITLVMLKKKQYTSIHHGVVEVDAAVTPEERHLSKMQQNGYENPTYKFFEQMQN
Data set [3] concerns the target T1, MAO-A (amine oxidase [flavin-containing] A) (Homo sapiens, UniProt P21397).
T1 sequence (P21397 whole entry): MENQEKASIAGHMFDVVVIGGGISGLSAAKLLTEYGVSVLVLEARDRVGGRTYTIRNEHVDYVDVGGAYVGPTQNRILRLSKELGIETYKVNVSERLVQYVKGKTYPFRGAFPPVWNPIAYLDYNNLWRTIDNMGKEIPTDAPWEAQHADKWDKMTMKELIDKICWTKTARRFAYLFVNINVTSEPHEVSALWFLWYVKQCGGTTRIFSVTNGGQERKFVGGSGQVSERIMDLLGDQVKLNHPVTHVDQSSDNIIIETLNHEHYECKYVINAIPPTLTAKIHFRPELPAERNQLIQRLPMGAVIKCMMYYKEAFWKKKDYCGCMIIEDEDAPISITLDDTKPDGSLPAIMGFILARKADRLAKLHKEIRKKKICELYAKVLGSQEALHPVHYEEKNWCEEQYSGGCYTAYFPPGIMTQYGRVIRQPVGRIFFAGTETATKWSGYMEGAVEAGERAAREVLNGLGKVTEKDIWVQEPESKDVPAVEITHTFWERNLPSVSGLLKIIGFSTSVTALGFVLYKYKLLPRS
In words: Inhibition of human recombinant MAO-A assessed as reduction in 4-hydroxyquinoline level using kynuramine as a substrate at 10 uM preincubated for 5 mins followed by substrate addition by spectrofluorimetric analysis. To be noted: probe kynuramine.

Data set [4] concerns the target T2, Amine oxidase [flavin-containing] B (Homo sapiens, UniProt P27338).
T2 sequence (P27338 whole entry): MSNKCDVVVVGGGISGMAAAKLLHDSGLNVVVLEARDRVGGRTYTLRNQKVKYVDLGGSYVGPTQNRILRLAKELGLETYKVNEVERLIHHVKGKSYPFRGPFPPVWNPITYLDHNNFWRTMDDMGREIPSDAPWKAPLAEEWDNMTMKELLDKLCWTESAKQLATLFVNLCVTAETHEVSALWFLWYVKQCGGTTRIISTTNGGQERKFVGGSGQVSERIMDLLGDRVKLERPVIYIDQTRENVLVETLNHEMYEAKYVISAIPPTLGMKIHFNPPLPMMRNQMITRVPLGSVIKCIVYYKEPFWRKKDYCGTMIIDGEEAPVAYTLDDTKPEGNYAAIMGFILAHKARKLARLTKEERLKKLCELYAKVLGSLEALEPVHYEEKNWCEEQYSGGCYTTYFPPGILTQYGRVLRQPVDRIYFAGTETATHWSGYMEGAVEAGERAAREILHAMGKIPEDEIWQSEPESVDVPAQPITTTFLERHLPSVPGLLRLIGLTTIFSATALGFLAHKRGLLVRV
In words: Inhibition of human recombinant MAO-B assessed as reduction in 4-hydroxyquinoline level using kynuramine as a substrate preincubated for 5 mins followed by substrate addition by spectrofluorimetric analysis.

Data set [5] deals with T3, Amine oxidase [flavin-containing] A (Homo sapiens, UniProt P21397).
T3 sequence (P21397 whole entry): T1 sequence (P21397 whole entry)
The data set is described as follows: Inhibition of human recombinant MAO-A assessed as reduction in 4-hydroxyquinoline level using kynuramine as a substrate preincubated for 5 mins followed by substrate addition by spectrofluorimetric analysis.

pIC50: −log10 of the molar value.

Chain of Cholinesterase (Homo sapiens) (P06276 whole entry): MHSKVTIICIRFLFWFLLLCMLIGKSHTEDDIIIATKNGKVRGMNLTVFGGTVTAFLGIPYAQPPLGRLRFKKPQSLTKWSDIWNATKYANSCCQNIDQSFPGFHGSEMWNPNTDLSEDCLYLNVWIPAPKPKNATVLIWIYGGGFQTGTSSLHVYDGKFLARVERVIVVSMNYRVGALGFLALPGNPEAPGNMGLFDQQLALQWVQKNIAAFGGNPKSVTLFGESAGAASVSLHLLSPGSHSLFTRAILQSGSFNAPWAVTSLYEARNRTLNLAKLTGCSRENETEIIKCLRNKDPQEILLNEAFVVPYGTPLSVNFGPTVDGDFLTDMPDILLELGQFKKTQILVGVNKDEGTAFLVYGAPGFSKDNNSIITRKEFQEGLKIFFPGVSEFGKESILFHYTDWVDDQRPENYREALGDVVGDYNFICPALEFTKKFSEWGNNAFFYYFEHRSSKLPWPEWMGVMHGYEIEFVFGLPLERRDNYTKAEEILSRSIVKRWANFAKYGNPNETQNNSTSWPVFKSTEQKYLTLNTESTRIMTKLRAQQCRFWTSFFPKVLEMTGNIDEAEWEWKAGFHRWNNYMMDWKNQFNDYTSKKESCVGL
Chain of Acetylcholinesterase (P22303 whole entry): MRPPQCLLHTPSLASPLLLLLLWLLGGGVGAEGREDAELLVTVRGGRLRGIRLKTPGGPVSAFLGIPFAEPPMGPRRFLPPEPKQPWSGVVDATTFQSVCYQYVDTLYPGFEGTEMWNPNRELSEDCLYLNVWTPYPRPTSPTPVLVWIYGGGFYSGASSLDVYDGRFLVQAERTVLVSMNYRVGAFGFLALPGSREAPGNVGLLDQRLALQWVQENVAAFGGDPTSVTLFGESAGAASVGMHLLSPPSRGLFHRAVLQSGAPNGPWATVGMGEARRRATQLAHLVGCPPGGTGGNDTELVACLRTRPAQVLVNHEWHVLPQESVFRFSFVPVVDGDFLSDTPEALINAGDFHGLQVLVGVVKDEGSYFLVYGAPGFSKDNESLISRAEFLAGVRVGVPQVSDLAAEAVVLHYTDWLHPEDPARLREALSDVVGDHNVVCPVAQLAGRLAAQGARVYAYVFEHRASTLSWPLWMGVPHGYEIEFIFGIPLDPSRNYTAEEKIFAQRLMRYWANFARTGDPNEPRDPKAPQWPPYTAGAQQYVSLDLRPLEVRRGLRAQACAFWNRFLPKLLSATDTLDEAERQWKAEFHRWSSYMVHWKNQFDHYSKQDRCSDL

Turning to `CCN(CC)Cc1ccc(C=C2Cc3ccc(OC)cc3C2=O)cc1`, the pIC50 on Acetylcholinesterase is 5.96. Further, the results for the inhibition in data set [1] and in data set [2] were 8.3% and 37.7%, respectively.
On to `CCN(CC)Cc1ccc(/C=C2\Cc3cc(OC)c(OC)cc3C2=O)cc1`, for which the pIC50 was 7.20 on Acetylcholinesterase and 6.11 in data set [4]. The inhibition at 10 µM in data set [3] stood at 49.6%.
Consider `CCN(CC)Cc1ccc(C=C2Cc3cc(OC)c(OC)cc3C2=O)cc1`, for which the pIC50 on Acetylcholinesterase is 6.60. The compound also gave an inhibition in data set [2] of 56%.
Regarding `CCN(CC)Cc1ccc(/C=C2\Cc3ccc(OC)cc3C2=O)cc1`, the results for the pIC50 (on Acetylcholinesterase; in data set [5]; in data set [4]) were 6.02, 7.02 and 7.04, respectively. For the same compound, in data set [1], the inhibition turned out to be 14.3%.
Take `CCN(CC)Cc1ccc(/C=C2/Cc3cc(OC)ccc3C2=O)cc1`: the pIC50 on Acetylcholinesterase was 5.94; in data set [4], 5.71. In data set [3], the inhibition at 10 µM turned out to be 28.2%. For the same compound, the inhibition in data set [2] was 23.4%.
In data set [2], `O=c1c(O)c(-c2ccc(O)c(O)c2)oc2cc(O)cc(O)c12` had an inhibition of 84.4%.
In the case of `CCN(CC)Cc1ccc(/C=C2\Cc3ccccc3C2=O)cc1`, the pIC50 on Acetylcholinesterase was 6.21; in data set [4] it was 6.18. Moreover, the inhibition in data set [1] came to 17.8%. Also, in data set [3], the inhibition at 10 µM amounted to 42.7%.
As for `CCN(CC)Cc1ccc(C=C2Cc3cc(OC)ccc3C2=O)cc1`, the pIC50 at Acetylcholinesterase is 6.30. In addition, the inhibition at 10 µM in data set [3] came out at 45.1%.
`CCN(CC)Cc1ccc(/C=C2\Cc3cc(OC)ccc3C2=O)cc1`: the pIC50 at Acetylcholinesterase is 6.95. The inhibition at 10 µM in data set [3] turned out to be 32.8%. In data set [2], this compound showed an inhibition of 7.4%.
For the compound `CCN(CC)Cc1ccc(C=C2Cc3ccccc3C2=O)cc1`, the pIC50 at Acetylcholinesterase was 5.88. Also, the inhibition in data set [1] was determined as 16.2%; in data set [2], 8.1%.

As a reminder, the pIC50 is the negative decadic logarithm of the IC50, by convention in mol/L. In general, inhibition refers to the share of the control response that was lost under treatment.
